Measurements published in PMC8238522 (Biochemical Journal, 2021).

Legend:
Assay in all cases: spectrophotometric NADH formation at […] nm, Hill fit
Format in all cases: biochemical
OsPGDH2 = molecular target: T1, OsPGDH2 (Oryza sativa, UniProt B7FAD2)
T1 sequence (B7FAD2 64-621): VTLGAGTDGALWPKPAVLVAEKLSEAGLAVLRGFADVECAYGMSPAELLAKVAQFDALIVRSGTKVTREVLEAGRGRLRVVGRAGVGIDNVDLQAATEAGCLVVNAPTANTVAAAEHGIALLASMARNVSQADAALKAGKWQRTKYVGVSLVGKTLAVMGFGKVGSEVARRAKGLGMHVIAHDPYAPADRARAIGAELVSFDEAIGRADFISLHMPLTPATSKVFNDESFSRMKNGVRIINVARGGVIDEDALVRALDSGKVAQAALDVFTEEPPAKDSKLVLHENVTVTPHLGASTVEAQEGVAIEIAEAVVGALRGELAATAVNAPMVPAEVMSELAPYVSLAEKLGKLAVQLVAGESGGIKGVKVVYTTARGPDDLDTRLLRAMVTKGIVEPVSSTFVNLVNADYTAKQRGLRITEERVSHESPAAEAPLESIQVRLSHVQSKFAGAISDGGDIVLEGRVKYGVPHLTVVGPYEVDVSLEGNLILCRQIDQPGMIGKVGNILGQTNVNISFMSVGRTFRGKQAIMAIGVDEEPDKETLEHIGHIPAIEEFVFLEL

OsPGDH1 = molecular target: T2, OsPGDH1 (Oryza sativa, UniProt B7F6I8)
T2 sequence (B7F6I8 68-613): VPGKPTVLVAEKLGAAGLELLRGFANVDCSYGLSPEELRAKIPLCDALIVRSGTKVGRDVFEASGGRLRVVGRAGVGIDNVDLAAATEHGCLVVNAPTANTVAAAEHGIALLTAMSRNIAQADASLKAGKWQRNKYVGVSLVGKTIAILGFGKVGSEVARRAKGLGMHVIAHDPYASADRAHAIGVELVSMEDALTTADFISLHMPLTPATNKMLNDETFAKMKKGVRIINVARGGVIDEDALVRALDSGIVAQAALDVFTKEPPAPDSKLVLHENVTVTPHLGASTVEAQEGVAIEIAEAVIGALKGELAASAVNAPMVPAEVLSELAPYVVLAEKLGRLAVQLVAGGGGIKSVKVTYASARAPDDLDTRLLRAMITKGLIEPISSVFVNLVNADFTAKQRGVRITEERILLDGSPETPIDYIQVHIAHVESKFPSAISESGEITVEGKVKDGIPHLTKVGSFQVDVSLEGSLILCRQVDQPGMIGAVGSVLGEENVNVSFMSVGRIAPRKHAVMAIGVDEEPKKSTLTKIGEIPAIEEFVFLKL

AmtriPGDH1 = molecular target: T3, AmtriPGDH1 (Amborella trichopoda, UniProt U5D351)
T3 sequence (U5D351 73-618): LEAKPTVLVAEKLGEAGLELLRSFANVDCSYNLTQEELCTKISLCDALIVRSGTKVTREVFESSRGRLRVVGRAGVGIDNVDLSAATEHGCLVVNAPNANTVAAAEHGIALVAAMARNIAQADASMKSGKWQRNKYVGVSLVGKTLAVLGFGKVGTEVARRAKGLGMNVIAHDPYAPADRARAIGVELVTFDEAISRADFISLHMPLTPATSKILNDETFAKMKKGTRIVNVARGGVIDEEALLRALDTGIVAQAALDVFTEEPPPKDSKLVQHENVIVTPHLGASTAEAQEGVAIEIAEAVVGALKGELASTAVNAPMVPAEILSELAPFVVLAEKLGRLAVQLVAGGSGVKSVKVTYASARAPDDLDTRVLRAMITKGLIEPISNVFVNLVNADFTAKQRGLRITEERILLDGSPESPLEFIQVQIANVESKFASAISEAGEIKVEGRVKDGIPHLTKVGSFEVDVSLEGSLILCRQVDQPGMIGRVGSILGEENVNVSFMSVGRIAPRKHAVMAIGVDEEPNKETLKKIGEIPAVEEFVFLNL

| Compound | EC50 (OsPGDH2) | EC50 (OsPGDH1) | EC50 (AmtriPGDH1) |
| --- | --- | --- | --- |
| C[C@H](N)C(=O)O [L-Alanine] | 950 ± 40 µM | – | – |
| N[C@@H](CCS)C(=O)O [L-Homocysteine] | – | 33 ± 3 µM | 20 ± 2 µM |
| CSCC[C@H](N)C(=O)O [L-Methionine] | – | 640 ± 30 µM | 750 ± 50 µM |
| N[C@@H](CO)C(=O)O [L-Serine] | – | 6400 ± 600 µM | 1200 ± 100 µM |
